From patent US20220288038A1, “ABCC11 INHIBITOR” (THE UNIVERSITY OF TOKYO, priority 2019, published 2022) come the findings set out here.

For assay [1], the target named is T1, human ABCC11 WT (NCBI accession NM_033151) (Homo sapiens, UniProt Q96J66).
T1 construct: made in house; host or cells: plasma membrane vesicles from HEK293-derived 293A cells infected with ABCC11-expressing recombinant adenovirus
The experiment in a line: Inhibition of ABCC11-mediated ATP-dependent [3H]-DHEAS transport into ABCC11-expressing plasma membrane vesicles (vesicle transport assay, rapid filtration). The class given is biochemical. The text has this:
(§1) Using an in vitro transport system with ABCC11-expresssing plasma. membrane vesicles (FIG. 1A), we investigated the effect of the test compound on ABCC11 function. To confirm the experimental system, we first examined the time-dependent increase in ATP-dependent dehydroepiandrosterone sulfate (DHEAS)—an ABCC11 substrate (Chen et al., 2005)—transport into the ABCC11-expressing plasma membrane vesicles (FIG. 1B).
(§2) Critical materials and resources used in this study were summarized in Supplementary Table S1. […]
FIG. 1. […] The DHEAS transport into membrane vesicles was measured at the indicated periods with or without ATP; the ATP-dependent DHEAS transport was calculated by subtracting the DHEAS transport activity in the absence of ATP from that in the presence of ATP. Data are expressed as the mean±SD. n=3. […] The DHEAS transport activities were measured in the presence of febuxostat at the indicated concentrations for 5 min. Data are expressed as the mean±SD. n=4. […]
Critical materials and resources used in this study were summarized in Supplementary Table S1. […] After the purification by a CsCl gradient ultracentrifugation method, the adenovirus titer was determined by using an. […]

Assay [2] deals with T2, human ABCC11 (Homo sapiens, UniProt Q96J66).
T2 construct: The complete human ABCC11 cDNA; expressed in transfected cells; host or cells: 293A cells (HEK293-derived), adenovirus-infected; plasma membrane vesicles prepared from them
T2 sequence (Q96J66 whole entry): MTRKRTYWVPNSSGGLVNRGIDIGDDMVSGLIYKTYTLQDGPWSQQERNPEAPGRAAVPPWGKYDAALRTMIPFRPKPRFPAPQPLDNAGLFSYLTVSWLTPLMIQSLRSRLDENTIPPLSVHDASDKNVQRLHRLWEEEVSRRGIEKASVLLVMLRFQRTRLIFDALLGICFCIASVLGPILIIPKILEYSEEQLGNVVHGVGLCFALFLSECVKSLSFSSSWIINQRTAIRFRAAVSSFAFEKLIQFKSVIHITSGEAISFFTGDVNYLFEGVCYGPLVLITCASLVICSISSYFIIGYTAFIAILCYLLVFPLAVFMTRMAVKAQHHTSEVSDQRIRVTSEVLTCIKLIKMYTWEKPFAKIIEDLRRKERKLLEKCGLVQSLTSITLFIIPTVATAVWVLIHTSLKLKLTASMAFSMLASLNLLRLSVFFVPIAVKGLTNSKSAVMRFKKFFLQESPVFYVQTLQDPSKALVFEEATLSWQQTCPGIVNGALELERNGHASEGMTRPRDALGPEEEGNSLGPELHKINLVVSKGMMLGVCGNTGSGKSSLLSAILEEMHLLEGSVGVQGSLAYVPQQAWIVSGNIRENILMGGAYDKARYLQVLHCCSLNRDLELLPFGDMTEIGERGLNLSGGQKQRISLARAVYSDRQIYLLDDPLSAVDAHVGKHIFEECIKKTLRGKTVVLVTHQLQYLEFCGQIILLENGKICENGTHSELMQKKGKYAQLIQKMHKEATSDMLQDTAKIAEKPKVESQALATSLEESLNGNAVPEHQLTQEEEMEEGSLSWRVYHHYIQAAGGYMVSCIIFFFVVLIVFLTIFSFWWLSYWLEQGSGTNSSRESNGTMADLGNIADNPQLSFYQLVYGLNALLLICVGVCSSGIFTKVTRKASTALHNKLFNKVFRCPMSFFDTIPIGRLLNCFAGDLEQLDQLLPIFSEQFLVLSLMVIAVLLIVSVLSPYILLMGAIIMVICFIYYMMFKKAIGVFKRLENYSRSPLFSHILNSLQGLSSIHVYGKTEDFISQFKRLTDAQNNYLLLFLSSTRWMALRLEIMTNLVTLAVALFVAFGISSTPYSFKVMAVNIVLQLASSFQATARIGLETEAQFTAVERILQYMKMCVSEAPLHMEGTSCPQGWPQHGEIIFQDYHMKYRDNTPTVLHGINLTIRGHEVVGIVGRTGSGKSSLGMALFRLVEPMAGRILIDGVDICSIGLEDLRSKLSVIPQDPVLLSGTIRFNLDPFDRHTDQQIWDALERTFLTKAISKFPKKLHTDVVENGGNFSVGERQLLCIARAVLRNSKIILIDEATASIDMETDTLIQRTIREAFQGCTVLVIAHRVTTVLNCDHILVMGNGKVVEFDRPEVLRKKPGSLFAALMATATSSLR
The experiment in a line: in vitro DHEAS vesicle transport assay with ABCC11-expressing plasma membrane vesicles. The class given is biochemical. To be noted: ATP-dependent transport of 100 nM [3H]-DHEAS into ABCC11-expressing 293A plasma membrane vesicles, 5 min, 37° C., febuxostat at indicated concentrations.
Source text: as §1, §2
Membrane vesicles were prepared from 293A cells infected with the ABCC11-expressing or EGFP-expressing (control) adenovirus as described previously (Toyoda et al., 2017). […] Protein concentration of the plasma membrane vesicles was quantified using a BCA Protein Assay Kit (Pierce, Rockford, Ill., USA) with bovine serum albumin (BSA) as a standard according to the manufacturer's protocol.
Experiments to study the in vitro transport of [1,2,6,7-^3H(N)]-dehydroepiandrosterone sulfate (DHEAS) (Perkin-Elmer Japan, Tokyo, Japan), an ABCC11 substrate (Chen et al., 2005), into ABCC11-expressing and control vesicles were performed by using a rapid filtration technique (Toyoda et al., 2017; Toyoda et al., 2019) with a minor modification. […] Then, the radioactivity derived from the incorporated DHEAS was measured. […]

Each structure is given as a SMILES string. pIC50: −log10 of the molar value. Entries after “also recorded” stand apart in the source; their conditions may differ.

T1 sequence (Q96J66 whole entry): as above

In assay [1], `Cc1nc(-c2ccc(OCC(C)C)c(C#N)c2)sc1C(=O)O` [Febuxostat] had a pIC50 of 5.49. Regarding `Cc1nc(-c2ccc(OCC(C)C)c(C#N)c2)sc1C(=O)O` [febuxostat], in assay [2], the “inhibition of ABCC11-mediated DHEAS transport” value is reported as “Dose-dependent inhibition; also recorded: inhibited ABCC11”.

The term pIC50 denotes the negative decadic logarithm of the IC50, by convention in mol/L. A low value points to a high IC50.
